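A five-concentration, 48-hour dose response in 96-well plates underlies each endpoint, interpolated linearly between surrounding concentrations. The concentration for 50% growth inhibition is given as GI50.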 Calls of active or inactive are those of the source. Cut-off read from the data, not from the text of the source: active = GI50 up to about 1.1 µM and inactive = higher.
Assays:
Experiment in all cases: inhibition of tumour cell growth, NCI panel, 48 h
[1] = system: CCRF-CEM
[2] = system: EKVX
[3] = system: A549
[4] = system: MOLT-4
[5] = system: COLO 205
[6] = system: SNB-78
[7] = system: HCT-116
[8] = system: HCC 2998
[9] = system: KM12
[10] = system: OVCAR-3
[11] = system: SK-OV-3
[12] = system: NCI-H460
[13] = system: LOX IMVI
[14] = system: SNB-75
[15] = system: SK-MEL-28
[16] = system: TK-10
[17] = system: RXF 393
[18] = system: HCT-15
[19] = system: A498
[20] = system: MDA-MB-435

| Compound | GI50 [1] | GI50 [2] | GI50 [3] | GI50 [4] | GI50 [5] | GI50 [6] | GI50 [7] | GI50 [8] | GI50 [9] | GI50 [10] | GI50 [11] | GI50 [12] | GI50 [13] | GI50 [14] | GI50 [15] | GI50 [16] | GI50 [17] | GI50 [18] [µM] | GI50 [19] | GI50 [20] |
| --- | --- | --- | --- | --- | --- | --- | --- | --- | --- | --- | --- | --- | --- | --- | --- | --- | --- | --- | --- | --- |
| Cc1c2cc[n+](C)cc2c(C)c2c1[nH]c1ccc(OCC(F)(F)F)cc12 | 4.16 µM (inactive) | 15 µM (inactive) | 1.53 µM (inactive) | 2.61 µM (inactive) | 1.46 µM (inactive) | 0.622 µM (active) | 3.95 µM (inactive) | 5.05 µM (inactive) | 2.53 µM (inactive) | 2.59 µM (inactive) | 3.89 µM (inactive) | 1.85 µM (inactive) | – | – | – | – | – | – | – | – |
| CC(=O)c1c2c(cc3c1CC1(C3)Cc3cc4c(c(C(C)=O)c3C1)CCC4)CCC2 | > 100 µM (inactive) | – | > 100 µM (inactive) | 73.1 µM (inactive) | > 100 µM (inactive) | > 100 µM (inactive) | > 100 µM (inactive) | > 100 µM (inactive) | > 100 µM (inactive) | > 100 µM (inactive) | – | > 100 µM (inactive) | > 100 µM (inactive) | 82.4 µM (inactive) | > 100 µM (inactive) | > 100 µM (inactive) | > 100 µM (inactive) | – | – | – |
| COC(=O)C1=C(C(=O)OC)C2(C3C(SC)=CC(C)(C)CC3S1)N(Cc1ccccc1)CCN2Cc1ccccc1 (stereo not given) | > 100 µM (inactive) | > 100 µM (inactive) | > 100 µM (inactive) | > 100 µM (inactive) | > 100 µM (inactive) | > 100 µM (inactive) | > 100 µM (inactive) | – | > 100 µM (inactive) | > 100 µM (inactive) | > 100 µM (inactive) | > 100 µM (inactive) | > 100 µM (inactive) | > 100 µM (inactive) | > 100 µM (inactive) | > 100 µM (inactive) | 54.7 µM (inactive) | > 100 | – | – |
| O=[N+]([O-])c1ccc2nc(O)n[n+]([O-])c2c1 | > 100 µM (inactive) | > 100 µM (inactive) | > 100 µM (inactive) | > 100 µM (inactive) | > 100 µM (inactive) | – | > 100 µM (inactive) | > 100 µM (inactive) | > 100 µM (inactive) | > 100 µM (inactive) | > 100 µM (inactive) | > 100 µM (inactive) | > 100 µM (inactive) | > 100 µM (inactive) | > 100 µM (inactive) | > 100 µM (inactive) | > 100 µM (inactive) | > 100 | > 100 µM (inactive) | > 100 µM (inactive) |
| Cc1ccc(S(=O)(=O)C(CC(=O)N2CCCC2)C(=O)c2ccccc2)cc1 (stereo not given) | 24.6 µM (inactive) | – | > 100 µM (inactive) | 25.6 µM (inactive) | > 100 µM (inactive) | 54.6 µM (inactive) | 55.6 µM (inactive) | > 100 µM (inactive) | > 100 µM (inactive) | > 100 µM (inactive) | – | > 100 µM (inactive) | 44.5 µM (inactive) | 80.2 µM (inactive) | > 100 µM (inactive) | > 100 µM (inactive) | > 100 µM (inactive) | – | – | – |
| CN(C)c1ccc2c(SCC(=O)OCC(=O)[C@@]3(O)CC[C@H]4[C@@H]5CCC6=CC(=O)C=C[C@]6(C)[C@H]5C(=O)C[C@@]43C)c3ccc(N(C)C)cc3nc2c1 | 1.35 µM (inactive) | 18.1 µM (inactive) | 15.2 µM (inactive) | 2.65 µM (inactive) | 5.79 µM (inactive) | – | 2.82 µM (inactive) | 6 µM (inactive) | 6.5 µM (inactive) | 5.24 µM (inactive) | 27.4 µM (inactive) | 3.24 µM (inactive) | 26.7 µM (inactive) | 20.6 µM (inactive) | 21.6 µM (inactive) | 16.3 µM (inactive) | 32.7 µM (inactive) | 3.3 | > 54.3 µM (inactive) | 17 µM (inactive) |
| COc1ccc(SCc2cc(OC)ccc2OC)cc1 | 17.5 µM (inactive) | > 56.1 µM (inactive) | 22.4 µM (inactive) | 8.24 µM (inactive) | 15.6 µM (inactive) | – | 33.8 µM (inactive) | 9.77 µM (inactive) | 4.23 µM (inactive) | > 40.6 µM (inactive) | 12 µM (inactive) | 37.4 µM (inactive) | 34.8 µM (inactive) | 11.1 µM (inactive) | 64.3 µM (inactive) | > 93.3 µM (inactive) | 40.6 µM (inactive) | 6.58 | 18.7 µM (inactive) | 2.75 µM (inactive) |
| CSc1ncc2c(C#N)c3n(C)c4ccccc4n3c(=O)c2n1 | > 100 µM (inactive) | > 100 µM (inactive) | > 100 µM (inactive) | > 100 µM (inactive) | > 100 µM (inactive) | – | > 100 µM (inactive) | > 100 µM (inactive) | > 100 µM (inactive) | > 100 µM (inactive) | > 100 µM (inactive) | > 100 µM (inactive) | > 100 µM (inactive) | > 100 µM (inactive) | > 100 µM (inactive) | > 100 µM (inactive) | > 100 µM (inactive) | > 100 | > 100 µM (inactive) | > 100 µM (inactive) |
